Data from paper PMC9508125, “The evolutionary advantage of an aromatic clamp in plant family 3 glycoside exo-hydrolases” (Nature Communications, 2022).
Numbering of substitutions follows the chain as printed.

How the values were obtained:
Assay in all cases: Relative rates of hydrolysis of poly-, oligosaccharides and aryl-glycosides
Format in all cases: biochemical
HvExoI W286F mutant = target: T1, HvExoI W286F mutant (Hordeum vulgare, UniProt Q9XEI3, W311F); conditions: substance is the substrate, nd = activity not detected
T1 sequence (Q9XEI3 26-630 W311F): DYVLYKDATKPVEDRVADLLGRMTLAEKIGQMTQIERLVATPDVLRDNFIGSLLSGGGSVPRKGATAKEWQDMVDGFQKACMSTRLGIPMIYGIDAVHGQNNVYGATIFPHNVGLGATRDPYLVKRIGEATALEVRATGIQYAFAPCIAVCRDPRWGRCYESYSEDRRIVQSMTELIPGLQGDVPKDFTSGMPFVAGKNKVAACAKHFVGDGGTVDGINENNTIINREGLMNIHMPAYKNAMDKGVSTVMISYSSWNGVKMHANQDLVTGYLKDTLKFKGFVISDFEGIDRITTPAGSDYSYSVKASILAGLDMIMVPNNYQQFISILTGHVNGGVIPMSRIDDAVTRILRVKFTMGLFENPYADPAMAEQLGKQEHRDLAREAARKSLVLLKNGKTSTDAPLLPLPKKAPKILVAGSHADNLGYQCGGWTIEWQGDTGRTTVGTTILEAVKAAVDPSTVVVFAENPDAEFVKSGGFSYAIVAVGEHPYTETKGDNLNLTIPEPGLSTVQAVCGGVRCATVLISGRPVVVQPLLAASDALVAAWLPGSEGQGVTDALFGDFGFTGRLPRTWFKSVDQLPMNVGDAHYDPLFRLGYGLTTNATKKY
Procedure, shortened: (§1)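 Steady-state apparent constants are derived from proportionally weighted nonlinear regression of Michaelis-Menten data. Rates of hydrolysis of polysaccharides, oligosaccharides and aryl-glucosides are relative values obtained with 50 pmoles of near-homogeneous HvExoI. The pH and temperature dependence was tested on 0.2% (w/v) 4NP-Glc.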

[1] = target: T2, HvExoI W286F/W434A mutant (Hordeum vulgare, UniProt Q9XEI3, W311F/W459A); conditions: substance is the substrate, nd = activity not detected
T2 sequence (Q9XEI3 26-630 W311F/W459A): T1 sequence (Q9XEI3 26-630 W311F) with W434A
Procedure, shortened: as §1

HvExoI W434A mutant = target: T3, HvExoI W434A mutant (Hordeum vulgare, UniProt Q9XEI3, W459A); conditions: substance is the substrate, nd = activity not detected
T3 sequence (Q9XEI3 26-630 W459A): T1 sequence (Q9XEI3 26-630 W311F) with F286W, W434A
Procedure, shortened: as §1

HvExoI W434Y mutant = target: T4, HvExoI W434Y mutant (Hordeum vulgare, UniProt Q9XEI3, W459Y); conditions: substance is the substrate, nd = activity not detected
T4 sequence (Q9XEI3 26-630 W459Y): T1 sequence (Q9XEI3 26-630 W311F) with F286W, W434Y
Procedure, shortened: as §1

WT HvExoI = WT HvExoI (Hordeum vulgare, UniProt Q9XEI3); conditions: substance is the substrate, HvExoI at 50 pmoles, nd = activity not detected
Procedure, shortened: as §1

Chain of WT HvExoI (Q9XEI3 entry or part of it): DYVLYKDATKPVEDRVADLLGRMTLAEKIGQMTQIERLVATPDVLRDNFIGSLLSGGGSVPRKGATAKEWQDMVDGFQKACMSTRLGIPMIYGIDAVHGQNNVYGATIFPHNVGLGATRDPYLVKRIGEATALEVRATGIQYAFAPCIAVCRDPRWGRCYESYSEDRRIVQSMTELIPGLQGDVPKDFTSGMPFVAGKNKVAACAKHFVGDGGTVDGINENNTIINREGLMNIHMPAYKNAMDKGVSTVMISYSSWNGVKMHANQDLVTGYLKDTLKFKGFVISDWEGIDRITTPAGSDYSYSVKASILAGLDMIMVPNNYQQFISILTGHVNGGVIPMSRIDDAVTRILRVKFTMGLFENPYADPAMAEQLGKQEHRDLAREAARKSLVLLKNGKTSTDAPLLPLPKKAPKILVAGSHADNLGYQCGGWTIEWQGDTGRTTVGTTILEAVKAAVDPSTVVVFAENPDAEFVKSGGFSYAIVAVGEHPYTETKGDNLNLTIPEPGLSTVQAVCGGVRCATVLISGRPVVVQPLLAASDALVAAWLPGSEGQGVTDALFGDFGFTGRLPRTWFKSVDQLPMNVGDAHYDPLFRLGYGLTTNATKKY

Molecule | Activity (relative rate of hydrolysis) (HvExoI W286F mutant) | Activity (relative rate of hydrolysis) [1] | Activity (relative rate of hydrolysis) (HvExoI W434A mutant) | Activity (relative rate of hydrolysis) (HvExoI W434Y mutant) | Activity (relative rate of hydrolysis) (WT HvExoI)
OC[C@H]1O[C@@H](O[C@@H]2[C@@H](O)[C@H](O[C@@H]3[C@@H](O)[C@H](O[C@@H]4[C@@H](O)[C@H](O[C@@H]5[C@@H](O)[C@H](O[C@H]6[C@H](O)[C@@H](CO)OC(O)[C@@H]6O)O[C@H](CO)[C@H]5O)O[C@H](CO)[C@H]4O)O[C@H](CO)[C@H]3O)O[C@H](CO)[C@H]2O)[C@H](O)[C@@H](O)[C@@H]1O (stereo partly shown) [Laminarihexaose] | 1.1 ± 0.03 μmole/min per mg protein | 0.1 ± 0.004 μmole/min per mg protein | 1.0 ± 0.02 μmole/min per mg protein | 1.4 ± 0.1 μmole/min per mg protein | 12.2 ± 0.1 μmole/min per mg protein
OC[C@H]1O[C@@H](O[C@H]2[C@H](O)[C@@H](O)[C@H](O[C@H]3[C@H](O)[C@@H](O)C(O)O[C@@H]3CO)O[C@@H]2CO)[C@H](O)[C@@H](O)[C@@H]1O (stereo partly shown) [Cellotriose] | 0.1 ± 0.01 μmole/min per mg protein | 0.01 ± 0.001 μmole/min per mg protein | – | 0.1 ± 0.02 μmole/min per mg protein | 8.8 ± 0.4 μmole/min per mg protein
OC[C@H]1O[C@@H](O[C@H]2C(O)O[C@H](CO)[C@@H](O)[C@@H]2O)[C@H](O)[C@@H](O)[C@@H]1O (stereo partly shown) [Sophorose] | 0.6 ± 0.01 μmole/min per mg protein | 0.02 ± 0.001 μmole/min per mg protein | – | 0.8 ± 0.1 μmole/min per mg protein | 6.0 ± 0.1 μmole/min per mg protein
OC[C@H]1O[C@@H](O[C@H]2[C@H](O)[C@@H](O)[C@H](O[C@H]3[C@H](O)[C@@H](O)[C@H](O[C@H]4[C@H](O)[C@@H](O)C(O)O[C@@H]4CO)O[C@@H]3CO)O[C@@H]2CO)[C@H](O)[C@@H](O)[C@@H]1O (stereo partly shown) [Cellotetraose] | 0.1 ± 0.01 μmole/min per mg protein | 0.1 ± 0.01 μmole/min per mg protein | – | 0.1 ± 0.01 μmole/min per mg protein | 8.5 ± 0.7 μmole/min per mg protein
OC[C@H]1O[C@@H](O[C@H]2[C@H](O)[C@@H](O)[C@H](O[C@H]3[C@H](O)[C@@H](O)[C@H](O[C@H]4[C@H](O)[C@@H](O)[C@H](O[C@H]5[C@H](O)[C@@H](O)C(O)O[C@@H]5CO)O[C@@H]4CO)O[C@@H]3CO)O[C@@H]2CO)[C@H](O)[C@@H](O)[C@@H]1O (stereo partly shown) [Cellopentaose] | 0.1 ± 0.01 μmole/min per mg protein | 0.01 ± 0.0003 μmole/min per mg protein | – | 0.1 ± 0.002 μmole/min per mg protein | 8.4 ± 0.4 μmole/min per mg protein
OC[C@H]1O[C@@H](O[C@H]2[C@H](O)[C@@H](O)[C@H](O[C@H]3[C@H](O)[C@@H](O)[C@H](O[C@H]4[C@H](O)[C@@H](O)[C@H](O[C@H]5[C@H](O)[C@@H](O)[C@H](O[C@H]6[C@H](O)[C@@H](O)C(O)O[C@@H]6CO)O[C@@H]5CO)O[C@@H]4CO)O[C@@H]3CO)O[C@@H]2CO)[C@H](O)[C@@H](O)[C@@H]1O (stereo partly shown) [Cellohexaose] | 0.1 ± 0.01 μmole/min per mg protein | 0.01 ± 0.0002 μmole/min per mg protein | – | 0.1 ± 0.01 μmole/min per mg protein | 9.1 ± 0.2 μmole/min per mg protein
OC[C@H]1O[C@@H](O[C@@H]2[C@@H](O)[C@H](O[C@@H]3[C@@H](O)[C@H](O[C@@H]4[C@@H](O)[C@H](O[C@@H]5[C@@H](O)[C@H](O[C@@H]6[C@@H](O)[C@H](O[C@@H]7[C@@H](O)[C@H](O)O[C@H](CO)[C@H]7O)O[C@H](CO)[C@H]6O)O[C@H](CO)[C@H]5O)O[C@H](CO)[C@H]4O)O[C@H](CO)[C@H]3O)O[C@H](CO)[C@H]2O)[C@H](O)[C@@H](O)[C@@H]1O [Laminariheptaose] | 1.2 ± 0.1 μmole/min per mg protein | 0.1 ± 0.004 μmole/min per mg protein | 1.0 ± 0.1 μmole/min per mg protein | 1.3 ± 0.1 μmole/min per mg protein | 11.0 ± 0.8 μmole/min per mg protein
O=[N+]([O-])c1ccc(O[C@@H]2O[C@H](CO)[C@@H](O)[C@H](O)[C@H]2O)cc1 [4NP-Glc, 4-nitrophenyl β-D-glucopyranoside] | 0.9 ± 0.01 μmole/min per mg protein | 1.8 ± 0.03 μmole/min per mg protein | 6.1 ± 0.1 μmole/min per mg protein | 1.2 ± 0.1 μmole/min per mg protein | 12.4 ± 0.8 μmole/min per mg protein
Gentiobiose | 0.4 ± 0.03 μmole/min per mg protein | 0.002 ± 0.0002 μmole/min per mg protein | – | 0.1 ± 0.01 μmole/min per mg protein | 4.7 ± 0.4 μmole/min per mg protein
Cellobiose | 0.1 ± 0.01 μmole/min per mg protein | 0.01 ± 0.001 μmole/min per mg protein | – | 0.1 ± 0.001 μmole/min per mg protein | 4.6 ± 0.2 μmole/min per mg protein
